{"source": "paper PMC4148168", "about": "(Journal of Medicinal Chemistry, 2014)", "key": {"hCAII [1]": {"biological_target": "T1, hCAII (Homo sapiens, UniProt P00918)", "experiment": "hCAII activity assay", "type": "biochemical"}, "hCAII [2]": {"biological_target": "T1, hCAII", "details": "aliphatic thiols; cited from earlier work"}, "[3]": {"test_system": "matrix metalloproteinases", "details": "cited from earlier work"}}}
{"compound": "Cc1cccc(=S)n1O", "note": "[6-CH3-1,2-HOPTO]", "values": [{"measurement": "fold decrease in potency relative to 1,2-HOPTO", "setting": "hCAII [1]; against hCAII", "value": 5, "unit": "fold"}]}
{"compound": "OCCS", "note": "[2-mercaptoethanol]", "values": [{"measurement": "inhibitory activity against hCAII (in words)", "setting": "hCAII [2]", "value": "lack inhibitory activity"}]}
{"compound": "Cc1cc(C)n(O)c(=S)c1", "note": "[4,6-CH3-1,2-HOPTO]", "values": [{"measurement": "fold decrease in potency/affinity relative to 4-CH3-1,2-HOPTO", "setting": "hCAII [1]; against hCAII", "value": "> 20", "unit": "fold"}]}
{"compound": "[O-][n+]1ccccc1S", "note": "[1,2-HOPTO, 1-hydroxypyridine-2-(1H)-thione]", "values": [{"measurement": "fold more potent than 1,2-HOPO", "setting": "[3]", "value": "~50", "unit": "fold"}, {"measurement": "fold more potent than 1,2-HOPO", "setting": "hCAII [1]; against hCAII", "value": "~50", "unit": "fold"}]}
{"compound": "On1c(C(F)(F)F)cccc1=S", "note": "[6-CF3-1,2-HOPTO]", "values": [{"measurement": "inhibition of hCAII (in words)", "setting": "hCAII [1]", "value": "all activity is lost"}]}
{"compound": "Cc1ccnc(S)c1", "note": "[4-CH3-2MPyr, 2-Mercapto-4-methylpyridine]", "values": [{"measurement": "fold decrease in potency/affinity relative to 4-CH3-1,2-HOPTO", "setting": "hCAII [1]; against hCAII", "value": "~200", "unit": "fold"}]}
{"compound": "Cc1cccn(O)c1=S", "note": "[3-CH3-1,2-HOPTO]", "values": [{"measurement": "fold increase in potency over unsubstituted 1,2-HOPTO", "setting": "hCAII [1]; against hCAII", "value": "> 10", "unit": "fold"}]}
